Experimental findings from PubChem BioAssay (NCI) are described below.

Some test systems named below: U251 CNS; MDA-MB-231 breast; M14 melanoma; CCRF-CEM leukemia; UO-31 renal; SNB-19 CNS; A549 NSCLC; RXF 393 renal; SR leukemia; COLO 205 colon.
Common to all, as to experiment: NCI anticancer screen, dose series, 48 h

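In this assay, cells in 96-well plates receive the compound at five concentrations for 48 hours. Endpoints are linearly interpolated between the surrounding concentrations. At the GI50, growth is halved. TGI: concentration producing complete growth inhibition.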

In the case of `CCN(Cc1c(F)cccc1F)c1ccc(CO)c(Cl)c1`, the GI50 in the assay with U251 CNS was 0.195 µM; with MDA-MB-231 breast, 13 µM; in the assay on M14 melanoma it was 19.4 µM; in the assay with CCRF-CEM leukemia, 25.7 µM; in the assay on UO-31 renal, 2.3 µM; in the assay on SNB-19 CNS, 24.4 µM. Also, the GI50 in the assay on A549 NSCLC is 0.445 µM; in the assay with RXF 393 renal it was 1.14 µM; in the assay with SR leukemia, 16.5 µM; in the assay with COLO 205 colon, 0.387 µM. In addition, the TGI with U251 CNS is 32.5 µM; with MDA-MB-231 breast, 38.3 µM; with M14 melanoma it was 48.1 µM; in the assay on CCRF-CEM leukemia it was 98.5 µM; in the assay on UO-31 renal it was 51.4 µM; with SNB-19 CNS, greater than 100 µM. Moreover, the TGI in the assay with A549 NSCLC worked out at 10.7 µM; with RXF 393 renal, 24.2 µM; in the assay with SR leukemia it was 49.2 µM; in the assay with COLO 205 colon, 1.61 µM.

For `CCn1c(-c2nonc2N)nc2ccc(F)cc21`, the GI50 in the assay with U251 CNS, with MDA-MB-231 breast, in the assay with M14 melanoma, in the assay with CCRF-CEM leukemia, with UO-31 renal and in the assay with SNB-19 CNS was greater than 25 µM in each case. In addition, the GI50 with A549 NSCLC, with RXF 393 renal, in the assay on SR leukemia and with COLO 205 colon was greater than 25 µM each time. Further, the TGI in the assay with U251 CNS, with MDA-MB-231 breast, with M14 melanoma, with CCRF-CEM leukemia, with UO-31 renal and in the assay with SNB-19 CNS was greater than 25 µM each time. For the same compound, the TGI in the assay with A549 NSCLC, in the assay with RXF 393 renal, with SR leukemia and in the assay with COLO 205 colon was greater than 25 µM each time.

Turning to `CC(C)(C)c1nc2c(o1)C(=Nc1ccc(F)cc1)c1ccccc1C2=O`, the TGI in the assay with U251 CNS was 19.7 µM; with MDA-MB-231 breast, greater than 100 µM; with M14 melanoma, 9.35 µM; in the assay with CCRF-CEM leukemia, greater than 100 µM; in the assay with UO-31 renal, 28.1 µM; with SNB-19 CNS, 26.6 µM. For the same compound, the TGI in the assay with A549 NSCLC was 22.7 µM; in the assay with RXF 393 renal, 37.9 µM; in the assay with SR leukemia it was greater than 100 µM; in the assay on COLO 205 colon, 30.7 µM.

Take `Cn1c(N)nc2c(nc(OCc3ccccc3)n2C2OC(CO)C(O)C2O)c1=O` (stereo not given): the TGI in the assay on U251 CNS, in the assay with MDA-MB-231 breast, with M14 melanoma, in the assay with CCRF-CEM leukemia, in the assay on UO-31 renal and in the assay on SNB-19 CNS was greater than 100 µM each time. The TGI in the assay with A549 NSCLC, in the assay on RXF 393 renal, in the assay on SR leukemia and with COLO 205 colon was greater than 100 µM each time.

As for `FC(F)(F)c1ccc2c(Nc3cccc(C4CC(c5ccccc5)=NN4c4ccc(Cl)cc4)c3)ccnc2c1` (stereo not given), the GI50 in the assay on U251 CNS was 3.24 µM; in the assay on MDA-MB-231 breast, 3.88 µM; with M14 melanoma, 3.93 µM; in the assay on CCRF-CEM leukemia it was 3.32 µM; with UO-31 renal, 1.82 µM; with SNB-19 CNS, 4.38 µM. For the same compound, the GI50 is 10.7 µM in the assay with A549 NSCLC, 4.82 µM with RXF 393 renal, 1.26 µM in the assay with SR leukemia and 10.7 µM in the assay with COLO 205 colon. The TGI with U251 CNS came out at 14.4 µM; in the assay on MDA-MB-231 breast it was 15.9 µM; in the assay on M14 melanoma, 22 µM; with CCRF-CEM leukemia, 38.5 µM; in the assay with UO-31 renal, 9.68 µM; in the assay with SNB-19 CNS, 27 µM. In addition, the TGI was 44.8 µM in the assay with A549 NSCLC, 20.1 µM in the assay on RXF 393 renal, 9.41 µM in the assay with SR leukemia and greater than 100 µM in the assay with COLO 205 colon.

Turning to `CCCSc1cc(Cl)nc(N)n1`, the GI50 with U251 CNS was greater than 100 µM; in the assay with MDA-MB-231 breast, greater than 100 µM; with M14 melanoma it was greater than 100 µM; in the assay on CCRF-CEM leukemia, greater than 100 µM; in the assay with UO-31 renal, 71.5 µM; with SNB-19 CNS it was greater than 100 µM. Also, the GI50 in the assay with A549 NSCLC, with RXF 393 renal, in the assay with SR leukemia and in the assay with COLO 205 colon was greater than 100 µM throughout. Further, the TGI with U251 CNS, in the assay on MDA-MB-231 breast, with M14 melanoma, with CCRF-CEM leukemia, in the assay on UO-31 renal and in the assay on SNB-19 CNS was greater than 100 µM each time. Also, the TGI in the assay on A549 NSCLC, in the assay on RXF 393 renal, in the assay on SR leukemia and in the assay with COLO 205 colon was greater than 100 µM throughout.

`COc1ccc2c(c1)[C@@]13CCN4CC5=CCO[C@H]6CC(=O)N2[C@H]1[C@H]6[C@H]5C[C@H]43`: the TGI in the assay on U251 CNS, in the assay with MDA-MB-231 breast, in the assay on M14 melanoma, with CCRF-CEM leukemia, with UO-31 renal and in the assay on SNB-19 CNS was greater than 100 µM throughout. Moreover, the TGI with A549 NSCLC, in the assay with RXF 393 renal, in the assay with SR leukemia and in the assay with COLO 205 colon was greater than 100 µM each time.

Regarding `O=P(O)(O)C(O)(Cn1ccnc1)P(=O)(O)O`, the GI50 in the assay with U251 CNS was greater than 59.1 µM; with MDA-MB-231 breast, greater than 40.6 µM; in the assay with M14 melanoma, greater than 53.3 µM; in the assay on CCRF-CEM leukemia, greater than 100 µM; with UO-31 renal, greater than 68.3 µM; in the assay with SNB-19 CNS it was greater than 81.2 µM. Besides, the GI50 is greater than 95.7 µM in the assay on A549 NSCLC, greater than 70.5 µM in the assay with RXF 393 renal, greater than 100 µM in the assay on SR leukemia and greater than 100 µM with COLO 205 colon. In addition, the TGI in the assay with U251 CNS is greater than 100 µM; in the assay on MDA-MB-231 breast, greater than 57 µM; with M14 melanoma, greater than 100 µM; in the assay on CCRF-CEM leukemia, greater than 100 µM; with UO-31 renal, greater than 100 µM; in the assay on SNB-19 CNS it was greater than 100 µM. In addition, the TGI with A549 NSCLC, in the assay on RXF 393 renal, with SR leukemia and in the assay with COLO 205 colon was greater than 100 µM throughout.
